From PMC5611513, “Structure-Based Prototype Peptides Targeting the Pseudomonas aeruginosa Type VI Secretion System Effector as a Novel Antibacterial Strategy” (Frontiers in Cellular and Infection Microbiology, 2017) come the findings set out here.

By Kd is commonly meant the equilibrium constant for the complex coming apart. Low values mean higher affinity, high ones lower affinity.

Changes are numbered by the printed parent chain.

The target in one experiment is T1, TplEi (Pseudomonas aeruginosa, UniProt Q9I3K3).
T1 sequence (Q9I3K3 1-380): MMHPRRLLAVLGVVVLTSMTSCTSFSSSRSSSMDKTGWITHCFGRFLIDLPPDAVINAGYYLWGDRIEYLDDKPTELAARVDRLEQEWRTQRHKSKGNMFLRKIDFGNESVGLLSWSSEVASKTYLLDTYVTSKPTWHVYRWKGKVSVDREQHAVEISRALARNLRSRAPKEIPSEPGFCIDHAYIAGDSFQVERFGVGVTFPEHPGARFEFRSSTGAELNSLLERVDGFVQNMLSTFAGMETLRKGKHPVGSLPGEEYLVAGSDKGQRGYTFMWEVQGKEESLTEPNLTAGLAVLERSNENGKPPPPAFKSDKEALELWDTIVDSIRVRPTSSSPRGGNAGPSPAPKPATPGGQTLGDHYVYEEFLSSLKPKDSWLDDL
Briefly: Isothermal titration calorimetry (ITC) of TplE peptides with wild type TplEi. It is filed as binding. The settings on record: for Kd: 25°C, 20 mM Tris-HCl pH 8.0, 100 mM NaCl, A peptides (WT) and its mutants, Figure 3D,E; for effect of the mutation on “L” peptide binding to TplEi: result in words, compared to WT peptide. The protocol: (§1) Isothermal titration calorimetry (ITC) assay was performed with a MicroCalTM iTC200 calorimeter (MicroCal, USA) at 25°C; both the protein and peptides were dissolved with the same buffer (20 mM Tris-HCl, pH = 8.0, 100 mM NaCl). The concentration of TplEi was between 0.03 and 0.04 mM. The concentrations of wild type peptides and mutants were between 1 and 2 mM. Titration was scheduled with 18 consecutive injections of 2 μl of peptide with a 120 s interval between injections, using a stirring rate of 600 rpm. Data acquisition and analysis were performed using MicroCal Origin software (version 7.0).
For orientation: Isothermal titration calorimetry measures the heat released or taken up as one component is titrated into another.

The next experiment has as its system E. coli BL21 (DE3). Description: Cell-toxicity assay, spot growth on LB agar. It is filed as cell-based, Escherichia coli. The settings on record: 0.045 mM IPTG, 24 h; for decrease of growth inhibition on expression of mutated “L” peptide: E. coli BL21 (DE3) expressing TplE-TplEi and mutated peptide, compared with “L” peptide. The protocol: Cell-toxicity assay was carried as previously described with minor modification (Jiang et al., [2016]). […] A 2 μl bacterial dilution was spotted onto LB agar plate containing 0.045 mM IPTG. Images were taken after 24 h growth.
(A) Diagrams of TplE, TplE-TplEi and “L” peptide expressing constructs. Expression of vector sequence and “L” peptide mutant with the PelB signal peptide was used as a control. […] A 10-fold serial dilution of overnight culture was spotted on LB agar plates from left to right. The experiments were performed at least 3 times.

The target of experiment [1] is T2, TplEi R266A mutant (Pseudomonas aeruginosa, UniProt Q9I3K3, R226A, form not given).
T2 sequence (Q9I3K3 1-380 R226A): T1 sequence (Q9I3K3 1-380) with R226A
Briefly: ITC of the “L” peptide with TplEi mutant R266A. The class given is binding. The note with it: TplEi R266A vs wild type TplEi. The protocol:
as §1
(§2) To further elucidate the mechanism underlying the “L” peptide binding, we mutated several key residues of TplEi interacting with the “L” peptide, and measured the binding affinity of the “L” peptide to these TplEi mutants using ITC. The side chain of K100 of the “L” peptide forms four hydrogen bonds with TplEi, among which only one involves side chain interaction with S215 of TplEi, whereas the other three involve backbone atoms. […] Similarly, we prepared TplEi mutants E219A and R266A, respectively. E219 forms a hydrogen bond with backbone NH group of K100 of the “L” peptide, and R266 forms two hydrogen bonds with the carbonyl group of W96 of the peptide (Figure 3A).

Experiment [2] deals with T3, TplEi R266A mutant (Pseudomonas aeruginosa, UniProt Q9I3K3).
T3 sequence (Q9I3K3 1-380 R226A): T1 sequence (Q9I3K3 1-380) with R226A
Description: ITC of the “L” peptide with TplEi mutant R266A. The note with it: 25°C, TplEi R266A, Figure S3. It is filed as binding. The protocol:
as §1, §2

In another experiment the target is T4, TplEi E219A mutant (Pseudomonas aeruginosa, UniProt Q9I3K3, E219A).
T4 sequence (Q9I3K3 1-380 E219A): T1 sequence (Q9I3K3 1-380) with E219A
Description: ITC of the “L” peptide with TplEi mutant E219A. The class given is binding. The protocol:
as §1, §2

For the next experiment, the target named is T5, TplEi S215A mutant (Pseudomonas aeruginosa, UniProt Q9I3K3, S215A).
T5 sequence (Q9I3K3 1-380 S215A): T1 sequence (Q9I3K3 1-380) with S215A
Description: ITC of the “L” peptide with TplEi mutant S215A. The class given is binding. The protocol:
as §1, §2

For “Ac-DDLFASIGALWTWAARGPKARQELLKAEQVEVDD-NH2 [W96A]”, at TplEi, the Kd is 0.031 µM and the “effect of the mutation on “L” peptide binding to TplEi” value (from here on “effect of the mutation”) was “increased binding affinity”.
Take “Ac-DDLFASIGALATWAWRGPKARQELLKAEQVEVDD-NH2 [W92A]”: in the experiment with E. coli BL21 (DE3), the “decrease of growth inhibition on expression of mutated “L” peptide” value is on record as “moderate decreased growth inhibition”. The same substance returned a Kd at TplEi of 50 µM.
In the case of “Ac-DDLFASIGAAWTWAWRGPKARQELLKAEQVEVDD-NH2 [L91A]”, on TplEi, binding was characterised by a dissociation constant (Kd) of 3.7 µM. This counts as single-digit micromolar.
Regarding “DDLFASIGALWTWAWRGPEARQELLKAEQVEVDD [K100E]”, the “decrease of growth inhibition on expression of mutated “L” peptide” value with E. coli BL21 (DE3) is given as “strong”. In addition, the “effect of the mutation” value on TplEi was “completely abolished”.
Consider “Ac-DDLFASIGALWTWAWRGPKARQELLKAEQVEVDD-NH2 [“L” peptide]”, for which the values for the decreased binding affinity at TplEi R266A mutant [1] and at TplEi E219A mutant (TplEi E219A vs wild type TplEi) were 375 folds and 284 folds, respectively. Also, the Kd on TplEi R266A mutant [2] turned out to be 46.9 µM; at TplEi E219A mutant (25°C, TplEi E219A, Figure S3), 35.5 µM; at TplEi S215A mutant (25°C, TplEi S215A, Figure S3) it was 7.8 µM. In the experiment with E. coli BL21 (DE3) (E. coli BL21 (DE3) expressing periplasmic-targeted TplE-TplEi and peptide, 10-fold serial dilutions, at least 3 experiments), the “growth inhibition on expression of the peptide” value was “significant TplE-dependent growth inhibition”. Further, the “reduced binding affinity comparing to wild type TplEi” value at TplEi S215A mutant (TplEi S215A vs wild type TplEi) was ~62 folds.
At TplEi, “Ac-DDLFASIGALWTWAWRAPKARQELLKAEQVEVDD-NH2 [G98A]” returned a Kd of 1.31 µM. In other words, the single-digit micromolar range.
As for “Ac-DDLFASIGALWTWAWRGAKARQELLKAEQVEVDD-NH2 [P99A]”, on TplEi, binding was characterised by a dissociation constant (Kd) of 0.057 µM and the “effect of the mutation” value is listed as “increased binding affinity”.
Turning to “Ac-DDLFASAGALWTWAWRGPKARQELLKAEQVEVDD-NH2 [I88A]”, binding at TplEi was characterised by a dissociation constant (Kd) of 4.8 µM.
